Here are results for four compounds from ChEMBL document CHEMBL6078634, “HDAC8 as a target in drug discovery: Function, structure and design” (Eur J Med Chem, 2024).

The structures appear in SMILES notation.

Experiment [1] deals with von Hippel-Lindau disease tumor suppressor/Histone deacetylase 8 (+). The experiment is described as follows: PROTAC activity at VHL/HDAC8 in human Jurkat cells assessed as induction of HDAC8 degradation measured for 6 hrs by Western blot analysis. (In western blotting, separated proteins are transferred to a membrane and probed.)
Another experiment deals with Histone deacetylase. The experiment can be described thus: Inhibition of HDAC in human HeLa nuclear extract using Boc-Lys(Ac)-AMC or Boc-Lys(Tfa)-AMC as substrate pre-incubated for 5 mins followed by substrate addition and measured after 30 mins by fluorescence assay. Type of experiment: cell-free.
A further experiment concerns the target Histone deacetylase 2 (Homo sapiens, UniProt Q92769). The experiment is described as follows: Inhibition of HDAC2 (unknown origin).
A further experiment addresses T1, Histone deacetylase 8 (Homo sapiens, UniProt Q9BY41).
T1 sequence (Q9BY41 whole entry): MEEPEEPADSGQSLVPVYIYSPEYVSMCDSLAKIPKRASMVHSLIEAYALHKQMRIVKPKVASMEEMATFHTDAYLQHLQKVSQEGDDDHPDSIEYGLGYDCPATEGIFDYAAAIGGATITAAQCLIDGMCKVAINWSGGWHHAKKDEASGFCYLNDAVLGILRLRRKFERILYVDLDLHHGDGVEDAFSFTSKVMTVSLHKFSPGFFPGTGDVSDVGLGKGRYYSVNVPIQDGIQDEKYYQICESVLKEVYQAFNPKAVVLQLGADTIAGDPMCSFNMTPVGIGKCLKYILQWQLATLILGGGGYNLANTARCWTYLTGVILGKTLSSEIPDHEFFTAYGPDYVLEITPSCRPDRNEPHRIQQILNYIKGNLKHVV
The experiment is described as follows: Inhibition of HDAC8 (unknown origin) using biotinylated histone H3 KAc peptide (1 to 21 residues) as substrate by HTRF assay.

Sequence of Histone deacetylase 2 (Q92769 whole entry): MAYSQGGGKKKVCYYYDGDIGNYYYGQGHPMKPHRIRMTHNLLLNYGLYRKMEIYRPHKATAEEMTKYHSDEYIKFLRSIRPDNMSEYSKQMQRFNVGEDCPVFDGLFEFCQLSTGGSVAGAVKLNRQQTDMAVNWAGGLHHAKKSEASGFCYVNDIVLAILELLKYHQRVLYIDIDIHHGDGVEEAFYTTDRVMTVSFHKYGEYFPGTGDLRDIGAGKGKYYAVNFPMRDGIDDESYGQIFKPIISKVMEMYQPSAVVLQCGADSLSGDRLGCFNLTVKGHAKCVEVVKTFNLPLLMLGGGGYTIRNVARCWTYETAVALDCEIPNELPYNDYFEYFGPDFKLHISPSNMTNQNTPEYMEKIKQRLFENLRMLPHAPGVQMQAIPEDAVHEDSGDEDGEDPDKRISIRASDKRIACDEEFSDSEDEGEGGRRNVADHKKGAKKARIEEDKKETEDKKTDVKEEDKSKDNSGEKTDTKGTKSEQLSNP

The DC50 is the concentration giving 50% degradation. Regarding `O=C1CCC(N2C(=O)c3cccc(NCc4cn(CCOCCOc5ccc(Cn6ccc7ccc(C(=O)NO)cc76)cc5)nn4)c3C2=O)C(=O)N1` (stereo not given), the DC50 in experiment [1] turned out to be 0.58 µM.
Still for that read-out and setting: the result for `COc1ccc(C(=O)NO)cc1OCc1ccc(C(=O)NCCCCCCCCNc2cccc3c2C(=O)N(C2CCC(=O)NC2=O)C3=O)cc1` (stereo not given) reads 0.0018 µM.
For orientation: IC50 means the concentration that inhibits the measured activity by half. At Histone deacetylase, `COc1ccc(/C=C/C(=O)NO)c(-c2ccc(Br)cc2)c1` gave an IC50 above 10 µM.
Consider `O=c1cc(-c2ccccc2)oc2cc(O)cc(O)c12` [CHRYSIN], for which the figures for the IC50 against Histone deacetylase 2 and on Histone deacetylase 8 were 129 µM and 40.2 µM, respectively.
